According to US20260217701A1, “SELECTIVE BET INHIBITORS AND USES THEREOF” (Tay Therapeutics Limited, priority 2022, published 2026):
Where “and” joins values, the source holds several entries; their conditions need not be identical. Equal values may be shown once.

Test: Dog PK study #3 (Compound A PO once daily 5 days, 5/10/20 mg/kg; PK, body weight, hematology)
Format: in vivo, beagle dogs
Parameters: Plasma Concentration: unit not given here
Protocol: For the third dog pharmacokinetic study, three solutions of different concentrations of Compound A were prepared in 5% DMSO/15% PEG-400/80% (10% VE-TPGS) as outlined in Table 2E. The Compound A solutions were administered to animals orally (PO) once daily over a five-day period. Body weight was recorded prior to dosing, and detailed clinical observations were made prior to dosing and throughout the study, as needed.
Animals were divided into Day 1 and Day 5 sample collection groups, with animals in the Day 1 collection group having blood samples taken prior to dosing and at 0.25, 0.5, 1, 2, 4, 8, and 24 hours after dosing on day 1. Animals in the Day 5 collection group having blood samples taken prior to dosing and at 0.25, 0.5, 1, 2, 4, 8, and 24 hours after dosing on day 5. Study groups are outlined in Table 3D.
Blood samples (~0.3 mL) were collected on day according to the following schedule (0.25, 0.5, 1, 2, 4, 8, and 24 h) after day 5 administration of Compound A by venipuncture of peripheral veins except for the dosing vein, and EDTA-K2 was used as anticoagulant. Within 30 minutes of collection, the samples were centrifuged at approximately 2000 times g-force for 10 minutes at 4° C. to obtain blood plasma. The plasma samples were immediately divided into two aliquots (~75 μL each), transferred to a cryogenic vial, and stored in a freezer at −75±15° C. prior to analysis.
The concentration of Compound A in the blood plasma was determined through LC-MS as previously described. Briefly, the experiments were conducted on a DMPK-LCMS-14-SMBA Triple Quad 6500 Plus instrument with an ACQUITY UPLC BEH C18 1.7 μm (50×2.1 mm) column. The matrix was male beagle dog plasma potassium (K2) EDTA A gradient of 95% water (0.1% formic acid and 2 mM HCOONH4)/95% acetonitrile (0.1% formic acid and 2 mM HCOONH4) was used as the mobile phase. The sample flow rate was 0.6 mL/min.
The samples were then vortex-mixed for 10 minutes at 800 rpm and centrifuged for 15 minutes at 3220×g at 4° C. 50 μL aliquots of supernatant were transferred to a clean 96-well plate and centrifuged for 5 minutes at 3220×g at 4° C. Samples were then injected into the LC/MS/MS system for quantitative analysis.
The gathered data were used for pharmacokinetic calculations using T1/2, CO, AUClast, AUCinf, MRTinf, Cl, Vss, and Number of Points for Regression as parameters.
The cell composition (hematology) of blood samples was analyzed at day 5. Analyses identified the total number of white blood cells, neutrophils, lymphocytes, monocytes, eosinophils, basophils, and platelets in collected samples.

[1] = Day 1, 5 mg/kg dose PO, individual animals
[2] = Day 1, 10 mg/kg dose PO, individual animals
[3] = Day 1, 20 mg/kg dose PO, individual animals

Question: Which results are given for Cn1cc(-c2ccccc2)c(-c2cn(C)c(=O)c3[nH]c(-c4cnn(C(F)(F)F)c4)cc23)cc1=O [Compound A, 6-methyl-4-(1-methyl-2-oxo-5-phenyl-1,2-dihydropyridin-4-yl)-2-(1-(trifluoromethyl)-1H-pyrazol-4-yl)-1,6-dihydro-7H-pyrrolo[2,3-c]pyridin-7-one]?
Answer: Plasma Concentration (Day 1, 5 mg/kg dose PO, time 0, individual animals): BQL; Plasma Concentration (Day 1, 5 mg/kg dose PO, time 0.25, individual animals): 9.79 and 28.1; Plasma Concentration (Day 1, 5 mg/kg dose PO, time 0.25, mean): 18.9; Plasma Concentration (Day 1, 5 mg/kg dose PO, time 0.5, individual animals): 206 and 326; Plasma Concentration (Day 1, 5 mg/kg dose PO, time 0.5, mean): 266; Plasma Concentration (Day 1, 5 mg/kg dose PO, time 1, individual animals): 523 and 590; Plasma Concentration (Day 1, 5 mg/kg dose PO, time 1, mean): 557; Plasma Concentration (Day 1, 5 mg/kg dose PO, time 2, individual animals): 587 and 671; Plasma Concentration (Day 1, 5 mg/kg dose PO, time 2, mean): 629; Plasma Concentration (Day 1, 5 mg/kg dose PO, time 4, individual animals): 765 and 686; Plasma Concentration (Day 1, 5 mg/kg dose PO, time 4, mean): 726; Plasma Concentration (Day 1, 5 mg/kg dose PO, time 8, individual animals): 785 and 424; Plasma Concentration (Day 1, 5 mg/kg dose PO, time 8, mean): 605; Plasma Concentration (Day 1, 5 mg/kg dose PO, time 24, individual animals): 166 and 58.7; Plasma Concentration (Day 1, 5 mg/kg dose PO, time 24, mean): 112; AUC0-last [1]: 7398 ng·h/mL; AUCExtra [1]: 6.05%; AUMCExtra [1]: 20.9%; Cl_F [1]: 10.6 mL/min/kg; Cmax [1]: 686 ng/mL; MRT0-last [1]: 7.83 h; Tlast [1]: 24.0 h; Vz_F [1]: 5.16 L/kg; AUC0-last (Day 1, 5 mg/kg dose PO, mean): 9495 ng·h/mL; Tlast (Day 1, 5 mg/kg dose PO, mean): 24.0 h; Plasma Concentration (Day 1, 10 mg/kg dose PO, time 0, individual animals): BQL; Plasma Concentration (Day 1, 10 mg/kg dose PO, time 0.25, individual animals): 310 and 258; Plasma Concentration (Day 1, 10 mg/kg dose PO, time 0.25, mean): 284; Plasma Concentration (Day 1, 10 mg/kg dose PO, time 0.5, individual animals): 948 and 954; Plasma Concentration (Day 1, 10 mg/kg dose PO, time 0.5, mean): 951; Plasma Concentration (Day 1, 10 mg/kg dose PO, time 1, individual animals): 1330 and 1260; Plasma Concentration (Day 1, 10 mg/kg dose PO, time 1, mean): 1295; Plasma Concentration (Day 1, 10 mg/kg dose PO, time 2, individual animals): 1820 and 1450; Plasma Concentration (Day 1, 10 mg/kg dose PO, time 2, mean): 1635; Plasma Concentration (Day 1, 10 mg/kg dose PO, time 4, individual animals): 2010 and 1380; Plasma Concentration (Day 1, 10 mg/kg dose PO, time 4, mean): 1695; Plasma Concentration (Day 1, 10 mg/kg dose PO, time 8, individual animals): 1080 and 860; Plasma Concentration (Day 1, 10 mg/kg dose PO, time 8, mean): 970; Plasma Concentration (Day 1, 10 mg/kg dose PO, time 24, individual animals): 138 and 134; Plasma Concentration (Day 1, 10 mg/kg dose PO, time 24, mean): 136; AUC0-last [2]: 15568 ng·h/mL; AUC(0-inf) [2]: 16719 ng·h/mL; AUCExtra [2]: 5.08% and 6.88%; AUMCExtra [2]: 18.2% and 23.5%; Cl_F [2]: 8.12 mL/min/kg and 9.97 mL/min/kg; Cmax [2]: 1450 ng/mL; MRT0-inf [2]: 9.54 h; MRT0-last [2]: 7.84 h; Tlast [2]: 24.0 h; T½ [2]: 5.95 h; Vz_F [2]: 3.68 L/kg and 5.14 L/kg; AUC0-last (Day 1, 10 mg/kg dose PO, mean): 17527 ng·h/mL; AUCExtra (Day 1, 10 mg/kg dose PO, mean): 5.98%; AUMCExtra (Day 1, 10 mg/kg dose PO, mean): 20.9%; Cl_F (Day 1, 10 mg/kg dose PO, mean): 9.04 mL/min/kg; Tlast (Day 1, 10 mg/kg dose PO, mean): 24.0 h; Vz_F (Day 1, 10 mg/kg dose PO, mean): 4.41 L/kg; Plasma Concentration (Day 1, 20 mg/kg dose PO, time 0, individual animals): BQL; Plasma Concentration (Day 1, 20 mg/kg dose PO, time 0.25, individual animals): 413 and 438; Plasma Concentration (Day 1, 20 mg/kg dose PO, time 0.25, mean): 426; Plasma Concentration (Day 1, 20 mg/kg dose PO, time 0.5, individual animals): 2090 and 1440; Plasma Concentration (Day 1, 20 mg/kg dose PO, time 0.5, mean): 1765; Plasma Concentration (Day 1, 20 mg/kg dose PO, time 1, individual animals): 3430 and 3440; Plasma Concentration (Day 1, 20 mg/kg dose PO, time 1, mean): 3435; Plasma Concentration (Day 1, 20 mg/kg dose PO, time 2, individual animals): 3620 and 5590; Plasma Concentration (Day 1, 20 mg/kg dose PO, time 2, mean): 4605; Plasma Concentration (Day 1, 20 mg/kg dose PO, time 4, individual animals): 4330 and 6000; Plasma Concentration (Day 1, 20 mg/kg dose PO, time 4, mean): 5165; Plasma Concentration (Day 1, 20 mg/kg dose PO, time 8, individual animals): 3170 and 4570; Plasma Concentration (Day 1, 20 mg/kg dose PO, time 8, mean): 3870; Plasma Concentration (Day 1, 20 mg/kg dose PO, time 24, individual animals): 394 and 1810; Plasma Concentration (Day 1, 20 mg/kg dose PO, time 24, mean): 1102; AUC0-last [3]: 86304 ng·h/mL; AUC(0-inf) [3]: 52608 ng·h/mL and 116806 ng·h/mL; AUCExtra [3]: 6.10% and 26.1%; AUMCExtra [3]: 20.3% and 58.8%; Cl_F [3]: 6.34 mL/min/kg and 2.85 mL/min/kg
